Measured values: patent US3966718A, “7-β-Acylamino-ceph-3-ems and salts and esters therefor” (Beecham Group Limited, priority 1973, dated 1976)
In brackets after ≈: the same amount, converted by molar mass. Counter-ions that a name gives are not always drawn. Like-named read-outs stand apart in the source and are kept apart here.

Key:
Format in all cases: cell-based
B. subtilis = assay: MIC on (nutrient) agar; conditions: Bacillus subtilis, read-out: minimum inhibitory concentration (MIC)
Staph. aureus Oxford = assay: MIC on (nutrient) agar; conditions: Staphylococcus aureus, read-out: minimum inhibitory concentration (MIC)
Staph. aureus Russell = assay: MIC on (nutrient) agar; conditions: Staphylococcus aureus, read-out: minimum inhibitory concentration (MIC)
β-Haemolytic Strep. CN10 = assay: MIC on (nutrient) agar; conditions: read-out: minimum inhibitory concentration (MIC)
Strep. pneumoniae CN33 = assay: MIC on (nutrient) agar; conditions: Streptococcus pneumoniae, read-out: minimum inhibitory concentration (MIC)
E. coli NCTC 10418 = assay: MIC on nutrient agar; conditions: Escherichia coli, NCTC10418; E. coli NCTC 10418, nutrient agar; read-out: minimum inhibitory concentration (MIC)
Salmonella typhi = assay: MIC on nutrient agar; conditions: Salmonella enterica, read-out: minimum inhibitory concentration (MIC)
Shigella sonnei = assay: MIC on nutrient agar; conditions: read-out: minimum inhibitory concentration (MIC)
Klebsiella aerogenes A = assay: MIC on nutrient agar; conditions: Klebsiella aerogenes A, nutrient agar; read-out: minimum inhibitory concentration (MIC)
Proteus mirabilis C977 = assay: MIC on nutrient agar; conditions: Proteus mirabilis C977, nutrient agar; read-out: minimum inhibitory concentration (MIC)

Work on `O=C(O)C1=C(Cc2cccnc2)CS[C@@H]2[C@H](NC(=O)[C@H](NC(=O)N3CCNC3=O)c3ccccc3)C(=O)N12` [Example 8, 7β-[D-2-(1-imidazolidonecarbonylamino)phenylacetamido]-3(3-pyridylmethyl)-3-cephem-4-carboxylic acid trifluoroacetic acid salt] yielded an MIC (B. subtilis; B. subtilis, agar) of 1.25 µg/mL, an MIC (Staph. aureus Oxford) of 0.25 µg/mL and an MIC (Staph. aureus Russell; Staph. aureus Russell, agar) of 12.5 µg/mL. It also gave an MIC (β-Haemolytic Strep. CN10; β-Haemolytic Strep. CN10, agar) of 0.12 µg/mL, an MIC (Strep. pneumoniae CN33) of 0.25 µg/mL and an MIC (E. coli NCTC 10418) of 25 µg/mL. It also gave an MIC (Salmonella typhi) of 25 µg/mL, an MIC (Shigella sonnei) of 25 µg/mL and an MIC (Klebsiella aerogenes A) of 12.5 µg/mL. It also gave an MIC (Proteus mirabilis C977) of 50 µg/mL.
`O=C(O)CSCC(=O)N[C@@H]1C(=O)N2C(C(=O)O)=C(Cc3cccnc3)CS[C@H]12` [Example 14, 4-Carboxy-7-carboxymethylthioacetamido-3-(3-pyridylmethyl)ceph-3-em trifluoroacetic acid salt] was tested, and the MIC (B. subtilis; B. subtilis, agar) was 25 µg/mL, the MIC (Staph. aureus Oxford) was 1.25 µg/mL and the MIC (Staph. aureus Russell; Staph. aureus Russell, agar) was 12.5 µg/mL. It also gave an MIC (β-Haemolytic Strep. CN10; β-Haemolytic Strep. CN10, agar) of 5 µg/mL, an MIC (Strep. pneumoniae CN33) of 12.5 µg/mL and an MIC (E. coli NCTC 10418) of 50 µg/mL. For the same compound, the MIC (Salmonella typhi) was 50 µg/mL, the MIC (Shigella sonnei) was 50 µg/mL and the MIC (Klebsiella aerogenes A) was 25 µg/mL. The MIC (Proteus mirabilis C977) was 50 µg/mL.
In the case of `O=C(Cc1cccs1)N[C@@H]1C(=O)N2C(C(=O)O)=C(Cc3cccnc3)CS[C@H]12` [Example 1, 3-(3-pyridylmethyl)-7β-(2-thienylacetamido)-3-cephem-4-carboxylic acid trifluoroacetate salt], the MIC (B. subtilis; B. subtilis, agar) is reported as 0.25 µg/mL, the MIC (Staph. aureus Oxford) is reported as 0.05 µg/mL and the MIC (Staph. aureus Russell; Staph. aureus Russell, agar) is reported as 10 µg/mL. The MIC (β-Haemolytic Strep. CN10; β-Haemolytic Strep. CN10, agar) was 0.1 µg/mL and the MIC (Strep. pneumoniae CN33) was 0.1 µg/mL.
Work on `N[C@@H](C(=O)N[C@@H]1C(=O)N2C(C(=O)O)=C(Cc3ccccn3)CS[C@H]12)c1ccccc1` [Example 7, 7β(Dα-aminophenylacetamido)-3(2-pyridylmethyl)-3-cephem-4-carboxylic acid di-trifluoroacetate] yielded an MIC (B. subtilis; B. subtilis, agar) of 1.25 µg/mL (≈ 2.94 µM), an MIC (Staph. aureus Oxford) of 1.25 µg/mL (≈ 2.94 µM) and an MIC (Staph. aureus Russell) of 12.5 µg/mL (≈ 29.4 µM). The MIC (β-Haemolytic Strep. CN10; β-Haemolytic Strep. CN10, agar) was 1.25 µg/mL (≈ 2.94 µM), the MIC (E. coli NCTC 10418) was 50 µg/mL (≈ 118 µM) and the MIC (Salmonella typhi) was 12.5 µg/mL (≈ 29.4 µM). The MIC (Shigella sonnei) was 25 µg/mL (≈ 58.9 µM) and the MIC (Proteus mirabilis C977) was 125 µg/mL (≈ 294 µM).
`O=C(CSc1ccncc1)N[C@@H]1C(=O)N2C(C(=O)O)=C(Cc3cccnc3)CS[C@H]12` [Example 16, 7β(4-pyridylthioacetamido)-3(3-pyridylmethyl)-3-cephem-4-carboxylic acid di-trifluoroacetic acid salt] gave an MIC (B. subtilis; B. subtilis, agar) of less than 0.02 µg/mL, an MIC (Staph. aureus Oxford) of less than 0.02 µg/mL and an MIC (Staph. aureus Russell; Staph. aureus Russell, agar) of 1 µg/mL. For the same compound, the MIC (β-Haemolytic Strep. CN10; β-Haemolytic Strep. CN10, agar) was less than 0.02 µg/mL, the MIC (Strep. pneumoniae CN33) was less than 0.02 µg/mL and the MIC (E. coli NCTC 10418) was 25 µg/mL. The MIC (Salmonella typhi) was 10 µg/mL, the MIC (Shigella sonnei) was 25 µg/mL and the MIC (Klebsiella aerogenes A) was 5 µg/mL. For the same compound, the MIC (Proteus mirabilis C977) was 100 µg/mL.
`N=C(N)N[C@@H](C(=O)N[C@@H]1C(=O)N2C(C(=O)O)=C(Cc3cccnc3)CS[C@H]12)c1ccccc1` [Example 11, 7β(Dα-guanidinophenylacetamido)-3(3-pyridylmethyl)-3-cephem-4-carboxylic acid di-trifluoroacetic acid salt] was tested, and the MIC (B. subtilis; B. subtilis, agar) was 2.5 µg/mL, the MIC (Staph. aureus Oxford) was 0.5 µg/mL and the MIC (Staph. aureus Russell; Staph. aureus Russell, agar) was 2.5 µg/mL. It also gave an MIC (β-Haemolytic Strep. CN10; β-Haemolytic Strep. CN10, agar) of 0.1 µg/mL, an MIC (Strep. pneumoniae CN33) of 0.1 µg/mL and an MIC (E. coli NCTC 10418) greater than 100 µg/mL. It also gave an MIC (Salmonella typhi) greater than 100 µg/mL, an MIC (Shigella sonnei) greater than 100 µg/mL and an MIC (Klebsiella aerogenes A) greater than 100 µg/mL. For the same compound, the MIC (Proteus mirabilis C977) was greater than 100 µg/mL.
`C[n+]1cccc(CC2=C(C(=O)O)N3C(=O)[C@@H](NC(=O)[C@H](N)c4ccccc4)[C@H]3SC2)c1` [Example 12, 7β(Dα-aminophenylacetamido)-3(3-pyridylmethyl)-3-cephem-4-carboxylic acid metho-trifluoroacetate trifluoroacetic acid salt] showed an MIC (B. subtilis; B. subtilis, agar) of 0.5 µg/mL, an MIC (Staph. aureus Oxford) of 0.25 µg/mL and an MIC (Staph. aureus Russell; Staph. aureus Russell, agar) of 12.5 µg/mL. It also gave an MIC (β-Haemolytic Strep. CN10; β-Haemolytic Strep. CN10, agar) of 0.05 µg/mL, an MIC (Strep. pneumoniae CN33) of 0.25 µg/mL and an MIC (E. coli NCTC 10418) of 50 µg/mL. For the same compound, the MIC (Salmonella typhi) was 50 µg/mL, the MIC (Shigella sonnei) was 50 µg/mL and the MIC (Klebsiella aerogenes A) was 50 µg/mL. For the same compound, the MIC (Proteus mirabilis C977) was 125 µg/mL.
For `O=C(O)C(F)(F)F.O=C(O)C1=C(Cc2cccnc2)CS[C@@H]2[C@H](NC(=O)C(C(=O)Oc3ccccc3)c3ccccc3)C(=O)N12` (stereo partly drawn) [Example 6, 7β(α-phenoxycarbonylphenylacetamido)-3(3-pyridylmethyl)-3-cephem-4-carboxylic acid trifluoroacetate], the MIC (B. subtilis) was 12.5 µg/mL, the MIC (Staph. aureus Oxford) was 5 µg/mL and the MIC (Staph. aureus Russell; Staph. aureus Russell, agar) was 25 µg/mL. For the same compound, the MIC (β-Haemolytic Strep. CN10) was 12.5 µg/mL, the MIC (E. coli NCTC 10418) was 50 µg/mL and the MIC (Salmonella typhi) was 125 µg/mL. The MIC (Shigella sonnei) was 12.5 µg/mL and the MIC (Proteus mirabilis C977) was 25 µg/mL.
